Source: patent US12139481B2, “Compositions comprising macrocycle derivatives incorporating bridged macrocycles and methods of producing and using same” (Southwestern Oklahoma State University, priority 2015, dated 2024)
Where “and” joins values, the source holds several entries; their conditions need not be identical. Equal entries are not always repeated. Where two headings read alike, the source gives them in different places.

System: Cryptococcus neoformans ATCC 90113
Assay: Antimicrobial microdilution assay against Cryptococcus neoformans (modified CLSI/NCCLS, optical density)
Type: cell-based
Settings: for X more potent than Amphotericin B: C. neoformans, ratio of molar IC50 to Amphotericin B
Experimental: Summary: Various macrocyclic derivatives constructed in accordance with the presently disclosed and/or claimed inventive concept(s) were screened in vitro against Cryptococcus neoformans ATCC 90113 using a microdilution assay. The minimum fungicidal concentration (MFC), the lowest test concentration that kills the organism, was determined in broth media.
Antimicrobial assay: Cryptococcus neoformans ATCC 90113 were obtained from the American Type Culture Collection (Manassas, VA.). The susceptibility testing was performed using a modified version of the CLSI (formerly NCCLS) methods (see below), and optical density was used to monitor growth. Samples were serially diluted in 20% DMSO/saline and transferred in duplicate to 96-well flat bottom microplates. Microbial inocula were prepared by correcting the OD630 of cell/spore suspensions in incubation broth RPMI at pH 6.0 to afford final desired target inocula. Amphotericin B (“AMB;” ICN Biomedicals, OH) was used as drug control. The organism concentration was read at 630 nm using the Biotek Powerwave XS plate reader (Bio-Tek instruments, VT) prior to and after incubation. Minimum fungicidal concentrations were determined by removing 5 μL from each clear well, transferring to agar, and incubating until growth was seen. The MFC/MBC is defined as the lowest test concentration that kids the organism (allows no growth on agar).
References for NCCLS methods referenced above: 1 NCCLS. Reference method for broth dilution antifungal susceptibility testing of yeasts, Vol. 22. Approved standard, 2nd ed. Wayne: National Committee for Clinical Laboratory Standards; 2002: 1-51. 2 NCCLS. Reference method for broth dilution antifungal susceptibility testing of conidium forming filamentous fungi, Vol. 18. Proposed standard M38-P. Wayne: National Committee for Clinical Laboratory Standards; 1998: 1-39. 3 NCCLS. Methods for dilution antimicrobial susceptibility tests for bacteria that grow aerobically, Vol. 20. NCCLS Document M7-A5. Wayne: National Committee for Clinical Laboratory Standards; 2000: 1-58.
The term “IC50” as used herein will be understood to refer to a test concentration in mol/L that affords 50% inhibition of the microbe relative to negative and positive controls. […] The abbreviation “MFC” as used herein will be understood to refer to a minimum fungicidal concentration, or the lowest test concentration in mol/L that kills the organism. All IC50s are calculated using the XLfit® fit curve fitting software (ID Business Solutions Ltd, Guildford, Surrey, UK).
General Experimental Procedures. All organisms were obtained from the American Type Culture Collection (Manassas, VA) and include the fungi Candida albicans ATCC 90028, C. glabrata ATCC 90030, C. krusei ATCC 6258, and Cryptococcus neoformans ATCC 90113, and the bacteria Staphylococcus aureus ATCC 29213 and methicillin-resistant S. aureus ATCC 33591 (MRS). All organisms were tested using modified versions of the CLSI (formerly NCCLS) methods. For all organisms, optical density was used to monitor growth (NCCLS, Reference Method for Broth Dilution Antifungal Susceptibility Testing of Yeasts; Approved Standard M27-A2. National Committee on Clinical Laboratory Standards, 2002 22 (15); and NCCLS, Methods for Dilution Antimicrobial Susceptibility Tests for Bacteria that Grow Aerobically; Approved Standard, Seventh Edition M7-A7. National Committee on Clinical Laboratory Standards, 2006. 26(2)).
Samples (dissolved in DMSO) were serially-diluted in 20% DMSO/saline and transferred (10 μL) in duplicate to 96 well flat bottom microplates.

[1] = in vitro, C. neoformans ATCC 90113
[2] = in vitro, C. neoformans ATCC 90113, read-out: C. neoformans IC50 (mol/L)

SMILES: C1CNCCN2CCCNCCN(C1)CC2.CC(=O)[O-].F[P-](F)(F)(F)(F)F.[Co+2] [ANC25, [Co(H2Bcyclam)(OAc)]PF6]
- X more potent than Amphotericin B: 0.03
- C. neoformans IC50 [1]: 4.360 µg/mL
- IC50 [2]: 8.91 µM

SMILES: C1CN2CCNCCN(CCN1)CC2.CC(=O)[O-].F[P-](F)(F)(F)(F)F.[Co+2] [ANC27A, [Co(H2Bcyclen)(OAc)]PF6]
- X more potent than Amphotericin B: 0.02
- C. neoformans IC50 [1]: 5.030 µg/mL
- IC50 [2]: 10.9 µM

SMILES: CN1CCCN2CCN(C)CCN(CC1)CC2.F[P-](F)(F)(F)(F)F.[Cl-].[Cl-].[Co+3] [DGJ031, [Co(B13N4)Cl2]PF6]
- X more potent than Amphotericin B: 0.02
- C. neoformans IC50 [1]: 4.980 µg/mL
- IC50 [2]: 9.67 µM

SMILES: CN1CCCN2CCN(C)CCN(CC1)CC2.F[P-](F)(F)(F)(F)F.[Cl-].[Cl-].[Mn+3] [DLM10, [Mn(B13N4)Cl2]PF6]
- X more potent than Amphotericin B: 0.01
- C. neoformans IC50 [1]: 9.522 µg/mL
- IC50 [2]: 18.6 µM

SMILES: CN1CCN2CCN(C)CCN(CC1)CC2.F[P-](F)(F)(F)(F)F.[Cl-].[Cl-].[Co+3] [DT06#2, [Co(Bcyclen)Cl2]PF6]
- X more potent than Amphotericin B: 0.04
- C. neoformans IC50 [1]: 3.390 µg/mL
- IC50 [2]: 6.78 µM

SMILES: CC(=O)[O-].CC(=O)[O-].CN1CCN2CCN(CC1)CCN(Cc1ccc(CN3CCN4CCN(C)CCN(CC4)CC3)cc1)CC2.F[P-](F)(F)(F)(F)F.F[P-](F)(F)(F)(F)F.[Cu+2].[Cu+2] [JAV06, [Cu2(p-CB-Cyclens)(OAc)2][PF6]2]
- X more potent than Amphotericin B: 0.02
- C. neoformans IC50 [1]: 10.900 µg/mL
- IC50 [2]: 10.3 µM

SMILES: Clc1ccc2c(N3CCNCCN(c4ccnc5cc(Cl)ccc45)CCNCC3)ccnc2c1.[Cl-].[Cl-].[Mn+2] [K-PAA2-0004-P8-TJH410, {[Mn(4,10-bis(7-chloroquinoline)cyclen]Cl2}]
- X more potent than Amphotericin B: 0.04
- C. neoformans IC50 [1]: 4.123 µg/mL
- IC50 [2]: 6.64 µM

SMILES: CN1CCN2CCN(CC1)CCN(Cc1ccccn1)CC2.[Cl-].[Cl-].[Mn+2] [KRW37, [Mn(pic1Me1-CB-Cyclen)Cl]Cl]
- X more potent than Amphotericin B: 0.03
- C. neoformans IC50 [1]: 3.076 µg/mL
- IC50 [2]: 7.17 µM

SMILES: CN1CCCN2CCN(CCCN(Cc3ccc(CN4CCCN5CCN(C)CCCN(CC5)CC4)cc3)CC2)CC1 [KS23, p-CB-cyclams]
- X more potent than Amphotericin B: 0.02
- C. neoformans IC50 [1]: 8.200 µg/mL
- IC50 [2]: 14.1 µM

SMILES: CC(=O)[O-].CC(=O)[O-].CN1CCCN2CCN(CCCN(Cc3ccc(CN4CCCN5CCN(C)CCCN(CC5)CC4)cc3)CC2)CC1.F[P-](F)(F)(F)(F)F.F[P-](F)(F)(F)(F)F.[Co+2].[Co+2] [KS40, [Co2(p-CB-cyclams)(OAc)2](PF6)2]
- X more potent than Amphotericin B: 13 and 13.21
- C. neoformans IC50 [1]: 0.020 µg/mL
- IC50 [2]: ≤ 0.018 µM
- IC50 (read-out: IC50 against C. neoformans): < 0.018 µM

SMILES: CC(=O)[O-].CC(=O)[O-].F[P-](F)(F)(F)(F)F.F[P-](F)(F)(F)(F)F.O.O.[Zn+2].[Zn+2].c1cc(CN2CCNCCN3CCN(CC3)CC2)cc(CN2CCNCCN3CCN(CC3)CC2)c1 [OB37, [Zn2(m-SB-Cyclens)(OAc)2][PF6]2•2H2O]
- X more potent than Amphotericin B: 0.32
- C. neoformans IC50 [1]: ≤ 0.800 µg/mL

SMILES: c1cc(CN2CCNCCCN3CCN(CC3)CC2)cc(CN2CCNCCCN3CCN(CC3)CC2)c1 [OB46, m-SB-Homocyclens]
- X more potent than Amphotericin B: 0.03
- C. neoformans IC50 [1]: 4.850 µg/mL
- IC50 [2]: 9.21 µM

SMILES: F[P-](F)(F)(F)(F)F.F[P-](F)(F)(F)(F)F.F[P-](F)(F)(F)(F)F.F[P-](F)(F)(F)(F)F.O.O.[Cu+2].[Cu+2].c1cc(CN2CCNCCCN3CCN(CC3)CC2)ccc1CN1CCNCCCN2CCN(CC2)CC1 [OB49, [Cu2(p-SB-Homocyclens)][PF6]4•2H2O]
- X more potent than Amphotericin B: 0.38
- C. neoformans IC50 [1]: ≤ 0.800 µg/mL
- IC50 [2]: 0.63 µM

SMILES: CC(=O)[O-].CC(=O)[O-].F[P-](F)(F)(F)(F)F.F[P-](F)(F)(F)(F)F.O.[Co+2].[Co+2].c1cc(CN2CCNCCCN3CCN(CC3)CC2)cc(CN2CCNCCCN3CCN(CC3)CC2)c1 [OB55, [Co2(m-SB-Homocyclens)(OAc)2][PF6]2•H2O]
- X more potent than Amphotericin B: 0.05
- C. neoformans IC50 [1]: 5.120 µg/mL
- IC50 [2]: 4.78 µM

SMILES: CC(=O)[O-].CN1CCN2CCN(CC1)CCN(Cc1cc(Cl)nc(Cl)c1)CC2.F[P-](F)(F)(F)(F)F.[Co+2] [OB118, [Co(Me1dcp1-CB-cyclen)(OAc)]PF6]
- X more potent than Amphotericin B: 0.03
- C. neoformans IC50 [1]: 6.050 µg/mL
- IC50 [2]: 9.52 µM

SMILES: CN1CCCN2CCN(C)CCCN(CC1)CC2.F[P-](F)(F)(F)(F)F.[Cl-].[Cl-].[Co+3] [SAH06#2, [Co(Bcyclam)Cl2]PF6]
- X more potent than Amphotericin B: 0.01
- C. neoformans IC50 [1]: 19.220 µg/mL
- IC50 [2]: 36.3 µM

SMILES: c1ccc2[nH]c(CN3CCNCCN4CCN(CC4)CC3)nc2c1 [SJA219, SB-BI-cyclen]
- X more potent than Amphotericin B: 0.01
- C. neoformans IC50 [1]: 5.780 µg/mL
- IC50 [2]: 17.6 µM

SMILES: CN1CCN2CCN(CC1)CCN(Cc1nc3ccccc3[nH]1)CC2 [SJA220, CB-BI-cyclen]
- X more potent than Amphotericin B: 0.02
- C. neoformans IC50 [1]: 5.160 µg/mL
- IC50 [2]: 15.1 µM

SMILES: [Cl-].[Cl-].[Zn+2].c1ccc2[nH]c(CN3CCNCCN4CCN(CC4)CC3)nc2c1 [SJA222, [Zn(SB-BI-cyclen)(Cl)2]]
- X more potent than Amphotericin B: 0.03
- C. neoformans IC50 [1]: 2.610 µg/mL

SMILES: CC(=O)[O-].CC(=O)[O-].CN1CCN2CCN(CC1)CCN(Cc1nc3ccccc3[nH]1)CC2.[Zn+2] [SJA225, [Zn(CB-BI-cyclen)(OAc)2]]
- X more potent than Amphotericin B: 0.01
- C. neoformans IC50 [1]: 5.690 µg/mL

SMILES: CN1CCN2CCN(CC1)CCN(Cc1nc3ccccc3[nH]1)CC2.[Cl-].[Cl-].[Mn+2] [SJA227, [Mn(CB-BI-cyclen)(Cl)2]]
- X more potent than Amphotericin B: 0.04
- C. neoformans IC50 [1]: 1.930 µg/mL
- IC50 [2]: 5.63 µM

SMILES: O=[N+]([O-])c1ccc(Cn2c(CN3CCNCCN4CCN(CC4)CC3)nc3ccccc32)cc1 [SJA229, SB-BINO2-cyclen]
- X more potent than Amphotericin B: 0.06
- C. neoformans IC50 [1]: 1.890 µg/mL
- IC50 [2]: 4.08 µM

SMILES: CC(=O)[O-].CC(=O)[O-].O=[N+]([O-])c1ccc(Cn2c(CN3CCNCCN4CCN(CC4)CC3)nc3ccccc32)cc1.[Ni+2] [SJA232, [Ni(SB-BINO2-cyclen)(OAc)2]]
- X more potent than Amphotericin B: 0.02
- C. neoformans IC50 [1]: 5.070 µg/mL
- IC50 [2]: 10.9 µM

SMILES: C1CNCCN2CCCNCCN(C1)CCC2.O.[Cl-].[Cl-].[Cl-].[Fe+3] [SLK36, Fe(H2PBCyclam)Cl3•H2O]
- X more potent than Amphotericin B: 0.03
- C. neoformans IC50 [1]: 3.330 µg/mL
- IC50 [2]: 7.92 µM

SMILES: C1CNCCN2CCCNCCN(C1)CCC2.O.O.O.[Cl-].[Cl-].[Cl-].[Mn+3] [SLK37, Mn(H2PBCyclam)Cl3•3H2O]
- X more potent than Amphotericin B: 0.06
- C. neoformans IC50 [1]: 1.780 µg/mL
- IC50 [2]: 3.91 µM

SMILES: C1CNCCN2CCCNCCN(C1)CCC2.CC(=O)[O-].F[P-](F)(F)(F)(F)F.F[P-](F)(F)(F)(F)F.F[P-](F)(F)(F)(F)F.[NH4+].[NH4+].[Ni+2] [SLK39B, [Ni(H2PBCyclam)(OAc)]PF6•2NH4PF6]
- X more potent than Amphotericin B: 0.03
- C. neoformans IC50 [1]: 5.890 µg/mL
- IC50 [2]: 7.1 µM

SMILES: C1CNCCN2CCCNCCN(C1)CCC2.CC(=O)[O-].F[P-](F)(F)(F)(F)F.F[P-](F)(F)(F)(F)F.F[P-](F)(F)(F)(F)F.[Cu+2].[NH4+].[NH4+] [SLK40B, [Cu(H2PBCyclam)(OAc)]PF6•2NH4PF6]
- X more potent than Amphotericin B: 0.03
- C. neoformans IC50 [1]: 6.930 µg/mL
- IC50 [2]: 8.31 µM

SMILES: [Cl][Fe-2]([Cl])([Cl])[Cl].[Cl][Fe-2]([Cl])([Cl])[Cl].[Fe+2].[Fe+2].c1cc(CN2CCCN3CCNCCCN(CC3)CC2)ccc1CN1CCCN2CCNCCCN(CC2)CC1 [TJH413B, [Fe2(H2-p-CB-cyclams)][FeCl4]2]
- X more potent than Amphotericin B: 0.03
- C. neoformans IC50 [1]: 7.380 µg/mL
- IC50 [2]: 6.95 µM
